Test results reported in patent publication US20100093747A1, “METHOD OF INDUCING NEGATIVE CHEMOTAXIS” (priority 2008, published 2010).
Marks after values point to notes of the source that are not given here.

Tested on: human neutrophils
Assay: Chemorepulsion (negative chemotaxis) of neutrophils in Neuroprobe ChemoTx plates, migrated cells quantified with Cell Titer Glo
Format: cell-based
Conditions: for chemorepulsion class mark in Tables 1-4: methods of Example 1
Description: Prior to beginning the assay, the following were prepared: • a. 0.5% Fetal Calf Serum (FCS) in Iscove's Modified Dulbecco's Medium (IMDM) (Assay Medium) (Both from ATCC). • b. Migratory cells at a concentration of 2×10^7 cells/ml in Assay Medium. • c. Four serial (10-fold) dilutions of the ligand of interest in Assay Medium. All stocks were diluted initially 1:100 into Assay Medium and subsequently made into 10 fold dilutions (100 uM, 10 uM, 1 uM, 0.1 uM). […] The same dilutions were followed. • 2. […] The plates were removed from packaging, leaving the membrane behind. • 4. 31 μl of the following solutions were pipetted into each well: • a. For media controls and for chemorepulsion samples, Assay Medium was used. • b. For chemoattraction samples, appropriate dilution of ligand was used. • 5. A sterile needle was used to pop any and all small bubbles present in each well. • 6. The membrane was carefully placed onto the plate, starting at one side and then slowly lowering the other edge onto the plate. • 7. 29 μl of the following were pipetted onto the top of each circle: • a. For media controls and chemoattraction samples, use Assay Medium. • b. For chemorepulsion samples, use the appropriate dilution of ligand. • 8. 2 μl of cells (40,000 cells) were added to each bubble of liquid from step 7. • 9. A needle was used to pop all air bubbles. • 10. The plate was covered with the supplied lid and incubated for the desired time at 37° C. in 5% CO2. Unless otherwise indicated, the incubation time was 1 hour for neutrophils and 3 hours for T cells. For monocytes and B cells, the incubation time was 2 hours. • 11. After the desired assay time, the liquid was removed from the top of the plate using a Kimwipe. At this point, the plate was stored (with the membrane in place) for up to 2 hours at 4° C. • 12. The membrane was carefully removed from the top of the plate and discard. The plate was examined under a microscope to look for ligand crystallization, contamination and overall migration. • 13. White read plates were preloaded with 25 ul PBS. • 14. Using a multichannel pipettor, 5 ul of Cell Titer Glo (Promega # G7572) was added to each well. • 15. Using a multichannel pipettor set at 30 ul, lysed cell solution was transferred to white read plates pre-loaded with PBS. • 16. The plate was read using the BioTek Synergy4 plate reader in order to quantify the number of migrated cells.
Compounds from the chemical analog library were screened once in CR mode as described.

Compound	chemorepulsion class mark in Tables 1-4 (neutrophils)	other results
COc1ccc(NC(=O)CSc2nc3cc([N+](=O)[O-])ccc3[nH]2)c(OC)c1 [Compound 33]	33* (Compounds that showed chemorepulsion that was at least 3-fold greater than media)	
COc1ccc2[nH]c(SCC(=O)Nc3ccccc3Br)nc2c1 [Compound 39]	39* (Compounds that showed chemorepulsion that was at least 3-fold greater than media)	
CSc1nc2cc(Cl)c(Oc3ccc4ccccc4c3Br)cc2[nH]1 [Compound 136]	136* (Compounds that showed chemorepulsion that was at least 3-fold greater than media)	
COc1ccc2[nH]c(SCC(=O)Nc3ccc(Cl)cc3)nc2c1 [Compound 40]	40* (Compounds that showed chemorepulsion that was at least 3-fold greater than media)	
COc1ccc2[nH]c(SCc3ccc(Cl)cc3)nc2c1 [Compound 11]	11* (Compounds that showed chemorepulsion that was at least 3-fold greater than media)	
O=C(CSc1nc2cc([N+](=O)[O-])ccc2[nH]1)Nc1ccc(O)c(C(=O)O)c1 [Compound 59]	59* (Compounds that showed chemorepulsion that was at least 3-fold greater than media)	
COc1ccc2[nH]c(SCC(=O)c3cc(C(C)(C)C)c(O)c(C(C)(C)C)c3)nc2c1 [Compound 20]	20* (Compounds that showed chemorepulsion that was at least 3-fold greater than media)	
O=C(CSc1nc2cc([N+](=O)[O-])ccc2[nH]1)Nc1ccccc1F [Compound 12]	12* (Compounds that showed chemorepulsion that was at least 3-fold greater than media)	
COc1ccc2[nH]c(SCC(=O)Nc3ccc4c(c3)OCO4)nc2c1 [Compound 36]	36* (Compounds that showed chemorepulsion that was at least 3-fold greater than media)	
COc1ccc2[nH]c(N3CCCC(C(=O)NCCc4ccc(Cl)cc4)C3)nc2c1 (stereo not shown) [Compound 128]	128* (Compounds that showed chemorepulsion that was at least 3-fold greater than media)	
COc1ccc2[nH]c([S+]([O-])Cc3ncc(C)c(OC)c3C)nc2c1 (stereo not shown) [omeprazole, reference compound]		chemorepulsion relative to cells treated with media alone (neutrophils, omeprazole 0.1, 1, 10 and 100 uM, FIG. 2): greater than 5 fold
CCOc1ccc2[nH]c(SCC(=O)N(c3ccccc3)C(C)C)nc2c1 [Compound 62]	62* (Compounds that showed chemorepulsion that was at least 3-fold greater than media)	
COc1ccc2[nH]c(SCC(=O)Nc3ccon3)nc2c1 [Compound 79]	79* (Compounds that showed chemorepulsion that was at least 3-fold greater than media)	
COc1ccc2[nH]c(SCC(=O)Nc3ccc(Br)cc3)nc2c1 [Compound 38]	38* (Compounds that showed chemorepulsion that was at least 3-fold greater than media)	
COc1ccc2nc([S@@+]([O-])Cc3ncc(C)c(OC)c3C)[nH]c2c1 [esomeprazole, reference compound]		chemorepulsion of neutrophils in response to the compound (0.048, 0.48, 4.8 or 48 uM, FIGS. 1A, 1B and 1C): showed chemorepulsion; dose dependence of the induction of chemotaxis / chemorepulsion (neutrophils, four 10-fold dilutions): dose-dependent
COc1ccc2[nH]c(SCC(=O)c3ccc4c(c3)OCO4)nc2c1 [Compound 23]	23* (Compounds that showed chemorepulsion that was at least 3-fold greater than media)	
CCOc1ccc2[nH]c(SCC(=O)Nc3ccccc3)nc2c1 [Compound 63]	63* (Compounds that showed chemorepulsion that was at least 3-fold greater than media)	
COc1ccc2[nH]c(SCc3cccc(I)c3)nc2c1 [Compound 45]	45* (Compounds that showed chemorepulsion that was at least 3-fold greater than media)	

Compound	chemorepulsion class mark in Tables 1-4 (neutrophils)	other results
COc1ccc2[nH]c(N3CCCC(C(=O)NCCc4ccccc4)C3)nc2c1 (stereo not shown) [Compound 157]	157* (Compounds that showed chemorepulsion that was at least 3-fold greater than media)	
COc1ccc2[nH]c(SCc3cnc(C)nc3N)nc2c1 [Compound 80]	80* (Compounds that showed chemorepulsion that was at least 3-fold greater than media)	
COc1ccc2[nH]c(SCc3ccc(Cl)c(Cl)c3)nc2c1 [Compound 22]	22* (Compounds that showed chemorepulsion that was at least 3-fold greater than media)	
CCOc1ccc2[nH]c(SCC(=O)Nc3nccs3)nc2c1 [Compound 60]	60* (Compounds that showed chemorepulsion that was at least 3-fold greater than media)	
COc1ccc2[nH]c(Sc3ccc(C(F)(F)F)cc3[N+](=O)[O-])nc2c1 [Compound 88]	88* (Compounds that showed chemorepulsion that was at least 3-fold greater than media)	
COc1ccc2[nH]c(SCC(=O)Nc3nc4ccc(OC)cc4s3)nc2c1 [Compound 17]	17* (Compounds that showed chemorepulsion that was at least 3-fold greater than media)	
COc1ccc2[nH]c(Sc3c(-c4ccccc4)c4cc(Cl)ccc4[nH]c3=O)nc2c1 [Compound 54]	54* (Compounds that showed chemorepulsion that was at least 3-fold greater than media)	
O=[N+]([O-])c1ccc2nc(-c3cn4ccsc4n3)sc2c1 [Compound 132]	132* (Compounds that showed chemorepulsion that was at least 3-fold greater than media)	
COc1ccc2[nH]c(SCC(=O)Nc3cc(Cl)ccc3OC)nc2c1 [Compound 37]	37* (Compounds that showed chemorepulsion that was at least 3-fold greater than media)	
COc1ccc2[nH]c(SCC(=O)Nc3ccc([N+](=O)[O-])cc3)nc2c1 [Compound 42]	42* (Compounds that showed chemorepulsion that was at least 3-fold greater than media)	
COc1ccc2[nH]c(SCC(=O)Nc3ccccc3[N+](=O)[O-])nc2c1 [Compound 41]	41* (Compounds that showed chemorepulsion that was at least 3-fold greater than media)	
COc1ccc2[nH]c(SCC(=O)NCc3ccccc3)nc2c1 [Compound 15]	15* (Compounds that showed chemorepulsion that was at least 3-fold greater than media)	
CCOc1ccc2[nH]c(SCC(=O)Nc3ccc(O)c(C(=O)O)c3)nc2c1 [Compound 58]	58* (Compounds that showed chemorepulsion that was at least 3-fold greater than media)	
COc1ccc2[nH]c(SCC(=O)Nc3cc(NC(=O)CSc4nc5cc(OC)ccc5[nH]4)cc(C(=O)O)c3)nc2c1 [Compound 43]	43* (Compounds that showed chemorepulsion that was at least 3-fold greater than media)	
COc1ccc(C(=O)CSc2nc3cc(OC)ccc3[nH]2)cc1 [Compound 21]	21* (Compounds that showed chemorepulsion that was at least 3-fold greater than media)	
COc1ccc2[nH]c(Sc3c(-c4ccccc4)c4ccc(Cl)cc4[nH]c3=O)nc2c1 [Compound 99]	99* (Compounds that showed chemorepulsion that was at least 3-fold greater than media)	
COCCCOc1ccnc(C[S+]([O-])c2nc3ccccc3[nH]2)c1C (stereo not shown) [rabeprazole, reference compound]		chemorepulsion over media (neutrophils, rabeprazole at 106 uM, FIG. 59): greater than 3 fold
COc1ccc2[nH]c(SCC(=O)Nc3ccccc3F)nc2c1 [Compound 16]	16* (Compounds that showed chemorepulsion that was at least 3-fold greater than media)	
